≈ marks a conversion by molar mass, not a printed value. Like-named read-outs stand apart in the source and are kept apart here.
Experiments:
C. krusei [1] = assay: MacSynergy 3-D synergy volume, checkerboard (Table 13); assay type: cell-based
From the text: (§1) The activity of one milbemycin was also studied in checker-board assays. […] It provides information on the extent of synergism between the two drugs and the concentrations at which synergism can be detected. Using differential surface analysis, pick of synergy volumes are quantified for each combination of drugs and strain tested in a traditional checkerboard assay (Table 13).

C. albicans BEN up = assay: as above; assay type: cell-based
From the text: as §1

[2] = system: C. albicans YEM-30 (wild-type, no pump deleted); assay: microbe, parasite or virus in culture; assay type: cell-based; settings: Candida albicans, read-out: MIC Flu alone
[3] = system: C. glabrata YEM-18 (low level CgBEN and CgCDR expression); assay: microbe, parasite or virus in culture; assay type: cell-based; settings: YEM-18; fluconazole alone
YEM 30 C. albicans wt = assay: FEPI MIC with/without 1/8 fluconazole MIC at 24 hrs (Table 11); assay type: cell-based; settings: Candida albicans, YEM 30
[4] = system: C. glabrata clinical isolates (n = 12); assay: microbe, parasite or virus in culture; assay type: cell-based; settings: Nakaseomyces glabratus
[5] = system: C. krusei YEM-52 (ATCC 90878), wild type; assay: Broth dilution MIC, fluconazole with/without milbemycin oxime (Table 6); assay type: cell-based; settings: Pichia kudriavzevii, ATCC90878; YEM-52 (ATCC 90878); read-out: MIC Flu alone
[6] = system: C. albicans YEM-20 (CDR1 deleted); assay: microbe, parasite or virus in culture; assay type: cell-based; settings: Candida albicans, read-out: MIC Flu alone
[7] = system: C. glabrata YEM-16 (low level CgBEN and CgCDR expression); assay: microbe, parasite or virus in culture; assay type: cell-based; settings: YEM-16; fluconazole alone
[8] = system: pCgBEN (MF) efflux pump in S. cerevisiae YEM-40; assay type: cell-based, C. glabrata
[9] = system: C. glabrata YEM-19 (CgCDR overexpression, higher than YEM-17); assay: microbe, parasite or virus in culture; assay type: cell-based; settings: YEM-19; fluconazole alone
[10] = system: YEM 15 C. albicans, CDR1CDR2 up; assay: microbe, parasite or virus in culture; assay type: cell-based; settings: Candida albicans, read-out: FLU MIC
[11] = system: C. albicans YEM-21 (BEN deleted); assay: microbe, parasite or virus in culture; assay type: cell-based; settings: Candida albicans, read-out: MIC Flu alone
[12] = system: S. cerevisiae YEM-1 overexpressing CDR1 (C. albicans); assay: microbe, parasite or virus in culture; assay type: cell-based; settings: Saccharomyces cerevisiae
[13] = system: C. albicans YEM-24 (CDR1, CDR2 deleted); assay: microbe, parasite or virus in culture; assay type: cell-based; settings: Candida albicans, read-out: MIC Flu alone
[14] = system: S. cerevisiae YEM-37 overexpressing CDR2 (C. albicans); assay: microbe, parasite or virus in culture; assay type: cell-based; settings: Saccharomyces cerevisiae
[15] = system: S. cerevisiae YEM-39 overexpressing CgCDR (C. glabrata); assay: microbe, parasite or virus in culture; assay type: cell-based; settings: Saccharomyces cerevisiae
C. krusei YEM-71 = assay: Broth dilution checkerboard, azoles and terbinafine with milbemycin α9 (Table 8); assay type: cell-based; settings: Pichia kudriavzevii
[16] = system: C. albicans YEM-12 (low level CDR1 expressor); assay: microbe, parasite or virus in culture; assay type: cell-based; settings: Candida albicans, read-out: MIC Flu alone
[17] = system: C. albicans clinical isolates (n = 33); assay: microbe, parasite or virus in culture; assay type: cell-based; settings: Candida albicans
[18] = system: C. albicans YEM-15 (CDR1 & CDR2 overexpressor); assay: microbe, parasite or virus in culture; assay type: cell-based; settings: Candida albicans
YEM 51 C. glabrata wt = assay: FEPI MIC with/without 1/8 fluconazole MIC at 24 hrs (Table 11); assay type: cell-based; settings: Nakaseomyces glabratus; YEM 51; NCCLS criteria for azoles; read-out: FLU MIC
[19] = system: C. glabrata YEM-17 (CgCDR overexpressor); assay: microbe, parasite or virus in culture; assay type: cell-based; settings: Nakaseomyces glabratus
C. lipolytica = assay: microbe, parasite or virus in culture; assay type: cell-based; settings: Yarrowia lipolytica, read-out: Fluconazole MIC, alone
[20] = system: S. cerevisiae YEM-3 parent strain (no pump); assay: microbe, parasite or virus in culture; assay type: cell-based; settings: Saccharomyces cerevisiae, read-out: MIC for the parent strain to fluconazole
[21] = system: C. albicans YEM-27 (CDR1, CDR2, BEN, FLU1 deleted); assay: microbe, parasite or virus in culture; assay type: cell-based; settings: Candida albicans, read-out: MIC Flu alone
[22] = system: YEM 24 C. albicans ΔCDR1, ΔCDR2; assay: microbe, parasite or virus in culture; assay type: cell-based; settings: Candida albicans, read-out: FLU MIC
[23] = system: C. albicans YEM-10 (low level CDR1 expressor); assay: microbe, parasite or virus in culture; assay type: cell-based; settings: Candida albicans, read-out: MIC Flu alone
C. tropicalis = assay: microbe, parasite or virus in culture; assay type: cell-based; settings: Candida tropicalis, read-out: Fluconazole MIC, alone
C. neoformans = assay: microbe, parasite or virus in culture; assay type: cell-based, Cryptococcus neoformans; settings: Cryptococcus neoformans, read-out: Fluconazole MIC, alone
[24] = system: C. glabrata YEM-17 (CgCDR overexpressor); assay: microbe, parasite or virus in culture; assay type: cell-based; settings: YEM-17; fluconazole alone
C. krusei [25] = assay: microbe, parasite or virus in culture; assay type: cell-based; settings: Pichia kudriavzevii, read-out: Fluconazole MIC, alone
[26] = system: C. albicans YEM-14 (low level CDR1 expressor); assay: microbe, parasite or virus in culture; assay type: cell-based; settings: Candida albicans, read-out: MIC Flu alone
[27] = system: YEM 13 C. albicans BEN up; assay: microbe, parasite or virus in culture; assay type: cell-based; settings: Candida albicans, read-out: FLU MIC
[28] = system: C. albicans YEM-29 (BEN, FLU1 deleted); assay: microbe, parasite or virus in culture; assay type: cell-based; settings: Candida albicans, read-out: MIC Flu alone
[29] = system: C. albicans ΔCDR1 ΔCDR2 ΔBEN ΔFLU1; assay type: cell-based
From the text: as §1

C. glabrata, CgCDR up = assay type: cell-based
From the text: as §1

[30] = system: C. albicans, CDR1, CDR2, up; assay type: cell-based
From the text: as §1

[31] = system: YEM 27 C. albicans ΔCDR1ΔCDR2 ΔBENΔFLU1; assay: microbe, parasite or virus in culture; assay type: cell-based; settings: Candida albicans, read-out: FLU MIC
YEM 53 C. krusei = assay: FEPI MIC with/without 1/8 fluconazole MIC at 24 hrs (Table 11); assay type: cell-based; settings: Pichia kudriavzevii; YEM 53; NCCLS criteria for azoles; read-out: FLU MIC
C. albicans, wt = assay: MacSynergy 3-D synergy volume, checkerboard (Table 13); assay type: cell-based
From the text: as §1

C. glabrata, wt = assay: as above; assay type: cell-based
From the text: as §1

[32] = read-out: Fluconazole MIC90, alone

OC(Cn1cncn1)(Cn1cncn1)c1ccc(F)cc1F [Fluconazole, fluconazole, reference compound]
Synergy Volume, fluconazole + one milbemycin (FEPI, not named) (C. krusei [1]): 1178
Synergy Volume, fluconazole + one milbemycin (FEPI, not named) (C. albicans BEN up): 196
MIC [2]: 0.5 µg/mL (≈ 1.63 µM)
Fluconazole MIC with 0 μg/ml milbemycin β1 [3]: 8 µg/mL
MIC (YEM 30 C. albicans wt; read-out: FLU MIC at 40 hrs, read at 40 hrs): 64 µg/mL (≈ 209 µM)
MIC (YEM 30 C. albicans wt; read at 24 hours, read-out: FLU MIC at 24 hours): 0.5 µg/mL (≈ 1.63 µM)
MIC50 ([4]; read-out: Fluconazole MIC50, alone): 32 µg/mL (≈ 104 µM)
MIC90 [4, 32]: > 128 µg/mL
MIC [5]: 64 µg/mL (≈ 209 µM)
MIC [6]: 0.125 µg/mL (≈ 0.408 µM)
Fluconazole MIC with 0 μg/ml milbemycin β1 [7]: 16 µg/mL
Fluconazole MIC [8]: 32 µg/mL
Fluconazole MIC with 0 μg/ml milbemycin β1 [9]: 128 µg/mL
MIC [10]: 64 µg/mL (≈ 209 µM)
MIC [11]: 0.25 µg/mL (≈ 0.816 µM)
MIC ([12]; read-out: Fluconazole MIC): 128 µg/mL (≈ 418 µM)
MIC [13]: 0.125 µg/mL (≈ 0.408 µM)
MIC ([14]; read-out: Fluconazole MIC): 4 µg/mL (≈ 13.1 µM)
MIC ([15]; read-out: Fluconazole MIC): 64 µg/mL (≈ 209 µM)
MIC (C. krusei YEM-71; YEM71, read-out: Fluconazole MIC): 128 µg/mL
MIC [16]: 2 µg/mL (≈ 6.53 µM)
MIC50 ([17]; read-out: Fluconazole MIC50, alone, C. albicans n = 33, MIC (80%) in YPD): 1 µg/mL (≈ 3.27 µM)
MIC90 [17, 32]: > 128 µg/mL
MIC ([18]; read-out: Fluconazole MIC): 128 µg/mL (≈ 418 µM)
MIC (YEM 51 C. glabrata wt): 64 µg/mL (≈ 209 µM)
MIC ([19]; read-out: Fluconazole MIC): 128 µg/mL (≈ 418 µM)
MIC (C. lipolytica): 128 µg/mL (≈ 418 µM)
MIC [20]: 0.5 µg/mL (≈ 1.63 µM)
MIC [21]: 0.03 µg/mL (≈ 0.098 µM)
MIC [22]: 0.25 µg/mL (≈ 0.816 µM)
MIC [23]: 0.25 µg/mL (≈ 0.816 µM)
MIC (C. tropicalis): > 128 µg/mL
MIC (C. neoformans): > 128 µg/mL
Fluconazole MIC with 0 μg/ml milbemycin β1 [24]: 64 µg/mL
MIC (C. krusei [25]): 128 µg/mL (≈ 418 µM)
MIC [26]: 0.125 µg/mL (≈ 0.408 µM)
MIC [27]: 64 µg/mL (≈ 209 µM)
MIC [28]: 0.25 µg/mL (≈ 0.816 µM)
Synergy Volume, fluconazole + one milbemycin (FEPI, not named) [29]: 0.08
Synergy Volume, fluconazole + one milbemycin (FEPI, not named) (C. glabrata, CgCDR up): 1815
Synergy Volume, fluconazole + one milbemycin (FEPI, not named) [30]: 2337
MIC [31]: ≤ 0.125 µg/mL
MIC (YEM 53 C. krusei): 64 µg/mL (≈ 209 µM)

CN(C/C=C/C#CC(C)(C)C)Cc1cccc2ccccc12 [Terbinafine, terbinafine]
Synergy Volume, terbinafine + one milbemycin (FEPI, not named) (C. krusei [1]): 1517
Synergy Volume, terbinafine + one milbemycin (FEPI, not named) (C. albicans, wt): 2790
Synergy Volume, terbinafine + one milbemycin (FEPI, not named) (C. albicans BEN up): 500
Synergy Volume, terbinafine + one milbemycin (FEPI, not named) (C. glabrata, wt): 478
MIC ([12]; read-out: Terbinafine MIC): 128 µg/mL (≈ 439 µM)
MIC ([14]; read-out: Terbinafine MIC): 2 µg/mL (≈ 6.86 µM)
MIC ([15]; read-out: Terbinafine MIC): 4 µg/mL (≈ 13.7 µM)
MIC (C. krusei YEM-71; YEM71, read-out: Terbinafine MIC): 128 µg/mL
MIC ([18]; read-out: Terbinafine MIC): 128 µg/mL (≈ 439 µM)
MIC ([19]; read-out: Terbinafine MIC): 128 µg/mL (≈ 439 µM)
Synergy Volume, terbinafine + one milbemycin (FEPI, not named) [29]: 169
Synergy Volume, terbinafine + one milbemycin (FEPI, not named) (C. glabrata, CgCDR up): 392
Synergy Volume, terbinafine + one milbemycin (FEPI, not named) [30]: 1386

From US6495591B1, “Fungal efflux pump inhibitors” (Essential Therapeutics, Inc., priority 1997, dated 2002)
